# In the supplement of paper PMC10307832:
# How the values were obtained:
# Assay in all cases: relative viability (nuclei count vs DMSO), 5 days (fraction); higher = more cells survive
# [1] = test system: PC-3 [JPC-3]
# Procedure, shortened: (§1)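 Five library-drug doses in √10 steps were combined with a fixed anchor-drug dose, or a single drug was given alone, by pin tool to lung cancer cell lines in 1536-well plates the day after seeding. Nuclei were stained and counted after 5 days. Relative viability is the nuclei count in treated wells over that in vehicle wells, taken as the median of duplicate plates.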
# [2] = test system: LK-2
# Procedure, shortened: as §1
# [3] = test system: RERF-LC-KJ
# Procedure, shortened: as §1
# [4] = test system: EMC-BAC-2
# Procedure, shortened: as §1
# [5] = test system: HOP-62
# Procedure, shortened: as §1
# [6] = test system: ABC-1
# Procedure, shortened: as §1
# [7] = test system: NCI-H727
# Procedure, shortened: as §1
# [8] = test system: NCI-H3122
# Procedure, shortened: as §1
# [9] = test system: NCI-H596
# Procedure, shortened: as §1
# [10] = test system: CAL-12T
# Procedure, shortened: as §1
# [11] = test system: NCI-H1651
# Procedure, shortened: as §1
# [12] = test system: HARA
# Procedure, shortened: as §1
# [13] = test system: NCI-H441
# Procedure, shortened: as §1
# [14] = test system: NCI-H1755
# Procedure, shortened: as §1
# [15] = test system: NCI-H1437
# Procedure, shortened: as §1
# [16] = test system: HCC-366
# Procedure, shortened: as §1
# [17] = test system: NCI-H1734
# Procedure, shortened: as §1
# [18] = test system: NCI-H2347
# Procedure, shortened: as §1
# [19] = test system: UMC-11
# Procedure, shortened: as §1
# [20] = test system: COR-L23
# Procedure, shortened: as §1
# [21] = test system: NCI-H1650
# Procedure, shortened: as §1
# [22] = test system: SK-LU-1
# Procedure, shortened: as §1
structure (smiles),measurement,setting,value
Cc1csc(=NC2CCCCC2)n1/N=C/c1ccc(O)c(O)c1O [MIM1] + NC(=O)Nc1cc(-c2cccc(F)c2)sc1C(=O)N[C@H]1CCCNC1 [AZD7762] (partner 0.2 µM),relative viability,[1]; first compound 0.2 µM,0.899
same,relative viability,[1]; first compound 0.6325 µM,0.801
same,relative viability,[1]; first compound 2 µM,0.719
same,relative viability,[1]; first compound 6.325 µM,0.724
same,relative viability,[1]; first compound 20 µM,0.751
same,relative viability,[2]; first compound 0.2 µM,0.423
same,relative viability,[2]; first compound 0.6325 µM,0.287
same,relative viability,[2]; first compound 2 µM,0.333
same,relative viability,[2]; first compound 6.325 µM,0.324
same,relative viability,[2]; first compound 20 µM,0.25
same,relative viability,[3]; first compound 0.2 µM,0.957
same,relative viability,[3]; first compound 0.6325 µM,0.917
same,relative viability,[3]; first compound 2 µM,0.818
same,relative viability,[3]; first compound 6.325 µM,0.687
same,relative viability,[3]; first compound 20 µM,0.17
same,relative viability,[4]; first compound 0.2 µM,1.12
same,relative viability,[4]; first compound 0.6325 µM,0.776
same,relative viability,[4]; first compound 2 µM,1.09
same,relative viability,[4]; first compound 6.325 µM,0.999
same,relative viability,[4]; first compound 20 µM,0.314
same,relative viability,[5]; first compound 0.2 µM,0.557
same,relative viability,[5]; first compound 0.6325 µM,0.662
same,relative viability,[5]; first compound 2 µM,0.756
same,relative viability,[5]; first compound 6.325 µM,0.506
same,relative viability,[5]; first compound 20 µM,0.0832
same,relative viability,[6]; first compound 0.2 µM,0.664
same,relative viability,[6]; first compound 0.6325 µM,0.896
same,relative viability,[6]; first compound 2 µM,0.814
same,relative viability,[6]; first compound 6.325 µM,0.788
same,relative viability,[6]; first compound 20 µM,0.341
same,relative viability,[7]; first compound 0.2 µM,0.663
same,relative viability,[7]; first compound 0.6325 µM,0.573
same,relative viability,[7]; first compound 2 µM,0.435
same,relative viability,[7]; first compound 6.325 µM,0.528
same,relative viability,[7]; first compound 20 µM,0.348
same,relative viability,[8]; first compound 0.2 µM,0.945
same,relative viability,[8]; first compound 0.6325 µM,0.978
same,relative viability,[8]; first compound 2 µM,0.973
same,relative viability,[8]; first compound 6.325 µM,0.472
same,relative viability,[8]; first compound 20 µM,0.19
same,relative viability,[9]; first compound 0.2 µM,1.17
same,relative viability,[9]; first compound 0.6325 µM,1.22
same,relative viability,[9]; first compound 2 µM,1.03
same,relative viability,[9]; first compound 6.325 µM,1.11
same,relative viability,[9]; first compound 20 µM,0.819
same,relative viability,[10]; first compound 0.2 µM,0.527
same,relative viability,[10]; first compound 0.6325 µM,0.575
same,relative viability,[10]; first compound 2 µM,0.605
same,relative viability,[10]; first compound 6.325 µM,0.436
same,relative viability,[10]; first compound 20 µM,0.332
same,relative viability,[11]; first compound 0.2 µM,0.464
same,relative viability,[11]; first compound 0.6325 µM,0.434
same,relative viability,[11]; first compound 2 µM,0.425
same,relative viability,[11]; first compound 6.325 µM,0.429
same,relative viability,[11]; first compound 20 µM,0.503
same,relative viability,[12]; first compound 0.2 µM,0.345
same,relative viability,[12]; first compound 0.6325 µM,0.412
same,relative viability,[12]; first compound 2 µM,0.189
same,relative viability,[12]; first compound 6.325 µM,0.219
same,relative viability,[12]; first compound 20 µM,0.148
same,relative viability,[13]; first compound 0.2 µM,1.16
same,relative viability,[13]; first compound 0.6325 µM,1.09
same,relative viability,[13]; first compound 2 µM,1.17
same,relative viability,[13]; first compound 6.325 µM,0.674
same,relative viability,[13]; first compound 20 µM,0.386
same,relative viability,[14]; first compound 0.2 µM,0.464
same,relative viability,[14]; first compound 0.6325 µM,0.436
same,relative viability,[14]; first compound 2 µM,0.433
same,relative viability,[14]; first compound 6.325 µM,0.38
same,relative viability,[14]; first compound 20 µM,0.354
same,relative viability,[15]; first compound 0.2 µM,1.02
same,relative viability,[15]; first compound 0.6325 µM,1.12
same,relative viability,[15]; first compound 2 µM,1.18
same,relative viability,[15]; first compound 6.325 µM,0.916
same,relative viability,[15]; first compound 20 µM,0.666
same,relative viability,[16]; first compound 0.2 µM,0.318
same,relative viability,[16]; first compound 2 µM,0.181
same,relative viability,[16]; first compound 6.325 µM,0.093
same,relative viability,[16]; first compound 20 µM,0.0374
same,relative viability,[17]; first compound 0.2 µM,0.524
same,relative viability,[17]; first compound 0.6325 µM,0.467
same,relative viability,[17]; first compound 2 µM,0.492
same,relative viability,[17]; first compound 6.325 µM,0.417
same,relative viability,[17]; first compound 20 µM,0.158
same,relative viability,[18]; first compound 0.2 µM,0.689
same,relative viability,[18]; first compound 0.6325 µM,0.779
same,relative viability,[18]; first compound 2 µM,0.797
same,relative viability,[18]; first compound 6.325 µM,0.623
same,relative viability,[18]; first compound 20 µM,0.57
CN1CCN(CCOc2cc(OC3CCOCC3)c3c(Nc4c(Cl)ccc5c4OCO5)ncnc3c2)CC1 [Saracatinib] + CC1(C)CCC(c2ccc(Cl)cc2)=C(CN2CCN(c3ccc(C(=O)NS(=O)(=O)c4ccc(N[C@H](CCN5CCOCC5)CSc5ccccc5)c(S(=O)(=O)C(F)(F)F)c4)cc3)CC2)C1 [Navitoclax] (partner 0.5 µM),relative viability,[1]; first compound 0.02 µM,0.806
same,relative viability,[1]; first compound 0.2 µM,0.754
same,relative viability,[1]; first compound 0.6325 µM,0.726
same,relative viability,[1]; first compound 2 µM,0.508
same,relative viability,[2]; first compound 0.02 µM,0.795
same,relative viability,[2]; first compound 0.2 µM,0.781
same,relative viability,[2]; first compound 0.6325 µM,0.71
same,relative viability,[2]; first compound 2 µM,0.489
same,relative viability,[3]; first compound 0.02 µM,0.817
same,relative viability,[3]; first compound 0.2 µM,1.17
same,relative viability,[3]; first compound 0.6325 µM,0.959
same,relative viability,[3]; first compound 2 µM,0.934
same,relative viability,[4]; first compound 0.02 µM,1.15
same,relative viability,[4]; first compound 0.2 µM,1.16
same,relative viability,[4]; first compound 0.6325 µM,1.15
same,relative viability,[4]; first compound 2 µM,0.993
same,relative viability,[5]; first compound 0.02 µM,1.01
same,relative viability,[5]; first compound 0.2 µM,0.804
same,relative viability,[5]; first compound 0.6325 µM,1.25
same,relative viability,[5]; first compound 2 µM,1.1
same,relative viability,[7]; first compound 0.02 µM,0.499
same,relative viability,[7]; first compound 0.2 µM,0.285
same,relative viability,[7]; first compound 0.6325 µM,0.48
same,relative viability,[7]; first compound 2 µM,0.225
same,relative viability,[8]; first compound 0.02 µM,1.02
same,relative viability,[8]; first compound 0.6325 µM,0.942
same,relative viability,[8]; first compound 2 µM,0.838
same,relative viability,[9]; first compound 0.02 µM,0.952
same,relative viability,[9]; first compound 0.2 µM,0.711
same,relative viability,[9]; first compound 0.6325 µM,0.925
same,relative viability,[9]; first compound 2 µM,0.682
same,relative viability,[19]; first compound 0.02 µM,0.318
same,relative viability,[19]; first compound 0.6325 µM,0.295
same,relative viability,[19]; first compound 2 µM,0.267
same,relative viability,[20]; first compound 0.02 µM,1.1
same,relative viability,[20]; first compound 0.2 µM,0.966
same,relative viability,[20]; first compound 0.6325 µM,0.923
same,relative viability,[20]; first compound 2 µM,0.933
same,relative viability,[10]; first compound 0.02 µM,1.17
same,relative viability,[10]; first compound 0.2 µM,1.29
same,relative viability,[10]; first compound 0.6325 µM,1.42
same,relative viability,[10]; first compound 2 µM,1.27
same,relative viability,[11]; first compound 0.02 µM,1.06
same,relative viability,[11]; first compound 0.2 µM,0.681
same,relative viability,[11]; first compound 0.6325 µM,0.998
same,relative viability,[11]; first compound 2 µM,1.03
same,relative viability,[21]; first compound 0.02 µM,1.17
same,relative viability,[21]; first compound 0.2 µM,1.1
same,relative viability,[21]; first compound 0.6325 µM,0.983
same,relative viability,[21]; first compound 2 µM,0.981
same,relative viability,[12]; first compound 0.02 µM,1.2
same,relative viability,[12]; first compound 0.6325 µM,1.1
same,relative viability,[12]; first compound 2 µM,0.984
same,relative viability,[13]; first compound 0.02 µM,0.566
same,relative viability,[13]; first compound 0.2 µM,0.681
same,relative viability,[13]; first compound 0.6325 µM,0.832
same,relative viability,[13]; first compound 2 µM,0.624
same,relative viability,[14]; first compound 0.02 µM,0.981
same,relative viability,[14]; first compound 0.2 µM,0.681
same,relative viability,[14]; first compound 0.6325 µM,0.874
same,relative viability,[14]; first compound 2 µM,0.588
same,relative viability,[22]; first compound 0.02 µM,0.752
same,relative viability,[22]; first compound 0.2 µM,0.535
same,relative viability,[22]; first compound 0.6325 µM,0.527
same,relative viability,[22]; first compound 2 µM,0.412
same,relative viability,[15]; first compound 0.02 µM,1.11
same,relative viability,[15]; first compound 0.2 µM,1.12
same,relative viability,[15]; first compound 0.6325 µM,1.11
same,relative viability,[15]; first compound 2 µM,1.03
same,relative viability,[16]; first compound 0.02 µM,1.03
same,relative viability,[16]; first compound 0.6325 µM,1.08
same,relative viability,[16]; first compound 2 µM,0.7
same,relative viability,[17]; first compound 0.02 µM,0.854
same,relative viability,[17]; first compound 0.6325 µM,0.767
same,relative viability,[17]; first compound 2 µM,0.697
same,relative viability,[18]; first compound 0.02 µM,0.725
same,relative viability,[18]; first compound 0.2 µM,0.686
same,relative viability,[18]; first compound 0.6325 µM,0.862
same,relative viability,[18]; first compound 2 µM,0.599
